Test results from patent US20260130933A1, “PHARMACEUTICAL COMPOSITION FOR PREVENTION OR TREATMENT OF NEPHROPATHY AND/OR DIABETES MELLITUS, COMPRISING ENAVOGLIFLOZIN” (DAEWOONG PHARMACEUTICAL CO., LTD., priority 2022, published 2026).

Test: Example 3: phase 3 trial, enavogliflozin 0.3 mg vs dapagliflozin 10 mg once a day for 24 weeks added to metformin and gemigliptin in patients with type 2 diabetes (same endpoints, rescue drug)
Format: in vivo, human
Procedure: 1) when Metformin (≥1,000 mg/Day) was Administered at a Constant Dose for at Least 8 Weeks Prior to Pre-Visit (Pre-Screening) • Metformin (≥1,000 mg/day) and gemigliptin (50 mg/day) were co-administered during the 8-week stabilization period. […] 4) when Metformin (≥1,000 mg/Day) and Gemigliptin (50 mg/Day) were Co-Administered at Constant Doses for at Least 8 Weeks Prior to Pre-Visit (Prescreening) • Without a separate stabilization period, Pre-visit (pre-screening) was Visit 1 (screening).
Subjects who met the inclusion/exclusion criteria continued to receive metformin and gemigliptin while receiving a placebo of the clinical trial drug in a single-blind (subject-blinded) state for a 2-week run-in period.
Here, the randomized subjects were stratified according to the administration therapy (co-administration with two or less agents (one or two agents) or three or more agents) of a conventional hypoglycemic agent (before washout of another hypoglycemic agent) within 24 weeks prior to obtaining written informed consent and by an HbA1c value (<8% or ≥8%) at Visit 1 (screening) measured in the central laboratory.
The randomized subjects were administered two tablets of the clinical trial drug corresponding to each administration group once a day, and then visited the institution at weeks 6, 12, 18, and 24 during the 24-week administration period to conduct efficacy and safety assessments. In addition, during the clinical trial period, they were instructed to exercise regularly and control their diet without changing their daily life patterns.
• 1) Change in HbA1c at week 24 after administration of clinical trial drug compared to Visit 2 (randomization)
• 1) Change in HbA1c at each time point of weeks 6, 12, and 18 after administration of clinical trial drug compared to Visit 2 (randomization) • 2) Change in FPG at each time point of weeks 6, 12, 18, and 24 after administration of clinical trial drug compared to Visit 2 (randomization) • 3) Proportion of subjects achieving HbA1c<7% at each time point of weeks 6, 12, 18, and 24 after administration of clinical trial drug • 4) Proportion of subjects achieving HbA1c<6.5% at each time point of weeks 6, 12, 18, and 24 after administration of clinical trial drug • 5) Proportion of subjects achieving therapeutic response (HbA1c change (HbA1c at Visit 2—HbA1c at each evaluation time point)>0.5% or HbA1c<7% at each evaluation time point compared to Visit 2 (randomization)) at each time point of weeks 6, 12, 18, and 24 after administration of clinical trial drug • 6) Proportion of subjects achieving therapeutic response (HbA1c change (HbA1c at Visit 2—HbA1c at each evaluation time point)>0.7% or HbA1c<7% at each evaluation time point compared to Visit 2 (randomization)) at each time point of weeks 6, 12, 18, and 24 after administration of clinical trial drug • 7) Proportion of subjects achieving therapeutic response (HbA1c change (HbA1c at Visit 2—HbA1c at each evaluation time point)>1% or HbA1c<7% at each evaluation time point compared to Visit 2 (randomization)) at each time point of weeks 6, 12, 18, and 24 after administration of clinical trial drug

[1] = week 6, modified per-protocol set 1, enavogliflozin 0.3 mg vs dapagliflozin 10 mg
[2] = week 6, modified per-protocol set 1, enavogliflozin 0.3 mg, dapagliflozin 10 mg

OC[C@H]1O[C@@H](c2cc(Cc3ccc(C4CC4)cc3)c(Cl)c3c2CCO3)[C@H](O)[C@@H](O)[C@@H]1O [Enavogliflozin, (2S,3R,4R,5S,6R)-2-(7-chloro-6 (4-cyclopropylbenzyl)-2,3-dihydrobenzofuran-4-yl)-6-(hydroxymethyl)tetrahydro-2H-pyran-3,4,5-triol]
Incidence of adverse events or adverse drug reactions between groups (24 weeks, vs dapagliflozin): no statistically significant differences | HbA1c, Mean (SD) (Baseline, PPS): 7.79% | HbA1c, Median (Baseline, PPS): 7.60% | Non-inferiority (margin 0.35) (HbA1c change at week 24, vs dapagliflozin): not inferior | HbA1c change from baseline, ANCOVA LS mean (SE) (Week 24, PPS): −0.92 % p | HbA1c change from baseline, Mean (SD) (Week 24, PPS): −0.93 % p | HbA1c change from baseline, Median (Week 24, PPS): −0.83 % p | HbA1c, Mean (SD) (Week 24, PPS): 6.86% | HbA1c, Median (Week 24, PPS): 6.76% | HbA1c change from baseline, LS mean difference (Week 24, PPS, enavogliflozin minus dapagliflozin): −0.06 % p | Non-inferiority (UCI < 0.35%) in HbA1c change (Week 24, PPS, enavogliflozin vs dapagliflozin): Yes | FPG change from baseline, LS mean (SE) (week 6): −25.96(1.42) mg/dL | HDL-C change from baseline, LS mean (SE) (week 6): 1.96(0.57) mg/dL | HOMA-IR change from baseline, LS mean (SE) (week 6): −0.94(0.15) | HOMA-β change from baseline, LS mean (SE) (week 6): 8.13(3.08) | HbA1c change from baseline, LS mean (SE) (week 6): −0.73(0.03) % p | LDL-C change from baseline, LS mean (SE) (week 6): 2.49(1.81) mg/dL | UACR change from baseline, LS mean (SE) (week 6): −8.76(3.43) g/kg | UGCR change from baseline, LS mean (SE) (week 6): 58.10(2.18) mg/mg | adiponectin change from baseline, LS mean (SE) (week 6): −0.10 (0.34) μg/mL | body weight change from baseline, LS mean (SE) (week 6): −1.92(0.17) kg | diastolic blood pressure change from baseline, LS mean (SE) (week 6): −2.04(0.70) mmHg | fasting C-peptide change from baseline, LS mean (SE) (week 6): −0.05(0.02) ng/mL | leptin change from baseline, LS mean (SE) (week 6): −1.83(0.45) ng/mL | systolic blood pressure change from baseline, LS mean (SE) (week 6): −2.76(0.90) mmHg | total cholesterol change from baseline, LS mean (SE) (week 6): 5.07 (1.97) mg/dL | triglyceride change from baseline, LS mean (SE) (week 6): −6.85(4.47) mg/dL | FPG change from baseline, LS mean difference (week 6, vs dapagliflozin): -3.24 mg/dL | HDL-C change from baseline, LS mean difference (week 6, vs dapagliflozin): 0.83 mg/dL | HOMA-IR change from baseline, LS mean difference (week 6, vs dapagliflozin): 0.05 | HOMA-β change from baseline, LS mean difference (week 6, vs dapagliflozin): 4.93 | HbA1c change from baseline, LS mean difference (week 6, vs dapagliflozin): −0.03 % p | LDL-C change from baseline, LS mean difference (week 6, vs dapagliflozin): 0.57 mg/dL | Odds ratio for achieving HbA1c<6.5% (week 6, vs dapagliflozin): 0.65 | Odds ratio for achieving HbA1c<7% (week 6, vs dapagliflozin): 1.22 | Odds ratio, therapeutic response (HbA1c change >0.5% or HbA1c<7%) (week 6, vs dapagliflozin): 1.52 | Odds ratio, therapeutic response (HbA1c change >0.7% or HbA1c<7%) (week 6, vs dapagliflozin): 1.16 | Odds ratio, therapeutic response (HbA1c change >1% or HbA1c<7%) (week 6, vs dapagliflozin): 1.38 | UACR change from baseline, LS mean difference (week 6, vs dapagliflozin): 6.09 g/kg | UGCR change from baseline, LS mean difference (week 6, vs dapagliflozin): 12.35 mg/mg | adiponectin change from baseline, LS mean difference (week 6, vs dapagliflozin): -0.47 µg/mL | body weight change from baseline, LS mean difference (week 6, vs dapagliflozin): -0.13 kg | diastolic blood pressure change from baseline, LS mean difference (week 6, vs dapagliflozin): −0.16 mmHg | fasting C-peptide change from baseline, LS mean difference (week 6, vs dapagliflozin): -0.01 ng/mL | leptin change from baseline, LS mean difference (week 6, vs dapagliflozin): 0.20 ng/mL | systolic blood pressure change from baseline, LS mean difference (week 6, vs dapagliflozin): 0.73 mmHg | total cholesterol change from baseline, LS mean difference (week 6, vs dapagliflozin): 2.45 mg/dL | triglyceride change from baseline, LS mean difference (week 6, vs dapagliflozin): -1.46 mg/dL | Change from baseline in HDL-C, ANCOVA LS mean difference [1]: 0.83 mg/dL | Change from baseline in LDL-C, ANCOVA LS mean difference [1]: 0.57 mg/dL | Change from baseline in total cholesterol, ANCOVA LS mean difference [1]: 2.45 mg/dL | Change from baseline in triglycerides, ANCOVA LS mean difference [1]: -1.46 mg/dL | Change from baseline in HDL-C, ANCOVA LS mean [2]: 1.96 mg/dL | Change from baseline in HDL-C, Mean [2]: 1.90 mg/dL | Change from baseline in HDL-C, Median [2]: 2.00 mg/dL | Change from baseline in LDL-C, ANCOVA LS mean [2]: 2.49 mg/dL | Change from baseline in LDL-C, Mean [2]: 2.42 mg/dL | Change from baseline in LDL-C, Median [2]: -1.00 mg/dL | Change from baseline in total cholesterol, ANCOVA LS mean [2]: 5.07 mg/dL | Change from baseline in total cholesterol, Mean [2]: 4.65 mg/dL | Change from baseline in total cholesterol, Median [2]: 3.00 mg/dL | Change from baseline in triglycerides, ANCOVA LS mean [2]: -6.85 mg/dL | Change from baseline in triglycerides, Mean [2]: -4.37 mg/dL | Change from baseline in triglycerides, Median [2]: -1.00 mg/dL | Fasting HDL-C, Mean [2]: 47.99 mg/dL | Fasting HDL-C, Median [2]: 46.00 mg/dL | Fasting LDL-C, Mean [2]: 73.35 mg/dL | Fasting LDL-C, Median [2]: 68.00 mg/dL | Fasting total cholesterol, Mean [2]: 138.43 mg/dL | Fasting triglycerides, Mean [2]: 112.71 mg/dL | Fasting triglycerides, Median [2]: 101.00 mg/dL | fasting Total cholesterol, Median [2]: 134.00 mg/dL
